We go through 22 molecules from ChEMBL document CHEMBL3813650, “GSK114: A selective inhibitor for elucidating the biological role of TNNI3K” (Bioorg Med Chem Lett, 2016).

Data set [1] addresses T1, Serine/threonine-protein kinase TNNI3K (Homo sapiens, UniProt Q59H18).
T1 sequence (Q59H18 whole entry): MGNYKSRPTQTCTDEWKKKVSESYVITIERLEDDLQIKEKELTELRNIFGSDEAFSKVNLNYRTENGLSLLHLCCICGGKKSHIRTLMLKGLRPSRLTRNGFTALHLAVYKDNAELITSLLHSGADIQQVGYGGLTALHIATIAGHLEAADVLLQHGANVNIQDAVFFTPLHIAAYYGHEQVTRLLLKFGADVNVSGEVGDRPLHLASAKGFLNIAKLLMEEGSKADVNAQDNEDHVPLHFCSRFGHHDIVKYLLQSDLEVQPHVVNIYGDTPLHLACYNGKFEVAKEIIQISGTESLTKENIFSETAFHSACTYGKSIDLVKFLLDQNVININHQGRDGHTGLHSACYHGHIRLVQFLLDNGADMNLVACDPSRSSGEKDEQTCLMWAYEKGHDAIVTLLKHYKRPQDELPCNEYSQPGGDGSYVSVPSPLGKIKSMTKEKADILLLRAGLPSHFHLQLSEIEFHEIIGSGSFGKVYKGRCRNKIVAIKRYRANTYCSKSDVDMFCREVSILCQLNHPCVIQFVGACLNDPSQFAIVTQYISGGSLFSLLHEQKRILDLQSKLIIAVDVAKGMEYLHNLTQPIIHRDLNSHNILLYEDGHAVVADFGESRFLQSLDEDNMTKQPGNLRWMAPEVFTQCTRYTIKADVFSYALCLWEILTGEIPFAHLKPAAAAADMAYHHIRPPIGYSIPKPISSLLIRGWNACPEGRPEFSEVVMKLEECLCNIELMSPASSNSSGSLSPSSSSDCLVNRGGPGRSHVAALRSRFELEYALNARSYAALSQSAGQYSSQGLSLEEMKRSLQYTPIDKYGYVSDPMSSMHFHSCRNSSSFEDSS
Description: Displacement of 5-({[2-({[3-({4-[(5-hydroxy-2-methylphenyl)amino]-2-pyrimidinyl}amino)phenyl]carbonyl}amino)-ethyl]amino}carbonyl)-2-(6-hydroxy-3-oxo-3H-xanthen-9-yl)benzoic acid from full length human TNNI3K expressed in baculovirus system incubated for 60 mins by fluorescence polarization assay.

Data set [2] concerns the target Serine/threonine-protein kinase B-raf (Homo sapiens, UniProt P15056, V600E). The data set is described as follows: Inhibition of full-length His6-tagged BRAF V600E mutant (2 to 766 residues) (unknown origin) expressed in baculovirus system by B-Raf accelerated MEK ATPase assay.
A further data set has as its system Rattus norvegicus. Description: Dose normalized AUC in Sprague-Dawley rat at 2 mg/kg, po administered as gastric bolus by LC/MS/MS analysis. In kind it is ADME, organism-based. Conditions: in vivo.
In data set [3] the target is T1, Serine/threonine-protein kinase TNNI3K. The data set is described as follows: Inhibition of human myc-tagged TNNI3K autophosphorylation overexpressed in HEKMSR2 cells incubated for 30 mins by time resolved fluorescence assay. In kind it is cell-based.
Data set [4] in a line: Fraction unbound in Sprague-Dawley rat plasma at 2 mg/kg, po administered as gastric bolus by LC/MS/MS analysis. Type of data set: ADME, organism-based.
Data set [5] is described as follows: Cmax in Sprague-Dawley rat at 2 mg/kg, po administered as gastric bolus by LC/MS/MS analysis. In kind it is ADME, organism-based. Also noted: dose 2 mg/kg, route oral. To be noted: in vivo.
Data set [6] can be described thus: Half life in Sprague-Dawley rat at 2 mg/kg, po administered as gastric bolus by LC/MS/MS analysis. Type of data set: ADME, organism-based. Conditions: in vivo.

Sequence of Serine/threonine-protein kinase B-raf (P15056 2-766 V600E limits assumed): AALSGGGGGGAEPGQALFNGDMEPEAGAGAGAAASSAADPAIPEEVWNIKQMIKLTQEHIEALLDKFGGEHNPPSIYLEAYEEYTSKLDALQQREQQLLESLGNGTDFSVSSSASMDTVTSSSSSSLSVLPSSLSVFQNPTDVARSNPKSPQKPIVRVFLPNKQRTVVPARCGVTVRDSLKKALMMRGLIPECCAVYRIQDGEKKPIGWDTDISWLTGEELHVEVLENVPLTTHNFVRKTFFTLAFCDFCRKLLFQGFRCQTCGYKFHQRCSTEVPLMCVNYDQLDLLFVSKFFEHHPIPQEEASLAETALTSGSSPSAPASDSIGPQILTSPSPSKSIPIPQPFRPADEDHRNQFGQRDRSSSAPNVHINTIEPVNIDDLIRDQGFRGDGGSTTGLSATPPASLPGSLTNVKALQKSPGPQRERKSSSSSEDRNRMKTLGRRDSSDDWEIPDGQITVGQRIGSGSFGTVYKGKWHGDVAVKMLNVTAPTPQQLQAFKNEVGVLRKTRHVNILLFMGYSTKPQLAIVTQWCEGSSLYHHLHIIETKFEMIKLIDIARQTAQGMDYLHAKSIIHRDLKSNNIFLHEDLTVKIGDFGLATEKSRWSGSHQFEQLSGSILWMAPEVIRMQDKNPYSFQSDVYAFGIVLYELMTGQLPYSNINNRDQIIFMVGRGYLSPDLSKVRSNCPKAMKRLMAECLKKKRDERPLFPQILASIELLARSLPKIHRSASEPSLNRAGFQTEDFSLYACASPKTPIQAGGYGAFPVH

Consider `CNc1ccc2ncnc(Nc3cc(S(=O)(=O)NC)ccc3N(C)C)c2c1`, for which the IC50 – broadly, the concentration needed to halve the response being measured – in data set [1] was 50 nM; in data set [2], 1000 nM.
In the data set on Rattus norvegicus, `CNS(=O)(=O)c1ccc(N(C)C)c(Nc2ncnc3[nH]ccc23)c1` yielded an AUC/dose of 0.59 kg·h/L.
For `CNS(=O)(=O)c1ccc(N(C)C)c(Nc2ncnc3cc[nH]c23)c1`, the half-inhibitory concentration (IC50) in data set [1] was found to be 25 nM; in data set [3] it was 500 nM; in data set [2], 250 nM. In addition, the AUC/dose with Rattus norvegicus came to 0.01 kg·h/L.
Consider `CNS(=O)(=O)c1ccc(N(C)C)c(Nc2ncnc3ccn(C)c23)c1`, for which the concentration for half-maximal inhibition (IC50) in data set [1] came out at 16 nM; in data set [3], 50 nM; in data set [2], 130 nM. The AUC/dose in the data set on Rattus norvegicus stood at 0.02 kg·h/L.
As to `CNS(=O)(=O)c1ccc(N2CCOCC2)c(Nc2ncnc3[nH]cc(Cl)c23)c1`, the IC50 is below 10 nM in data set [1] and 0.6 nM in data set [2].
In the case of `CNS(=O)(=O)c1ccc(OCC(F)(F)F)c(Nc2ncnc3cc(OCCCN4CCOCC4)ccc23)c1`, the values for the IC50 in data set [1], in data set [3] and in data set [2] were 13 nM, 79 nM and 1300 nM, respectively. Moreover, in the data set with Rattus norvegicus, the AUC/dose came to 0 kg·h/L.
As to `CNS(=O)(=O)c1ccc(N(C)C)c(Nc2ncnc3cc(N)ccc23)c1`, the IC50 in data set [1] stood at 63 nM; in data set [2] it was 4000 nM.
Consider `CNS(=O)(=O)c1ccc(N(C)C)c(Nc2ncnc3cc(OC)c(OC)cc23)c1`, for which the IC50 in data set [1] is 25 nM; in data set [3], 100 nM; in data set [2], 1000 nM. Further, the fraction unbound (as a rule, the share of the substance not bound to proteins or other matrix) in data set [4] came out at 0.202. In addition, the highest level in data set [5] (Cmax) was 130 ng/mL. For the same molecule, the AUC/dose in the data set with Rattus norvegicus is 0.18 kg·h/L. Further, in data set [6], the half-life – broadly, the time in which the quantity being followed falls by half – is 3.6 h.
On to `CNS(=O)(=O)c1ccc(N(C)C)c(Nc2ncnc3ccc(N)cc23)c1`, for which the values for the IC50 in data set [1] and in data set [2] were 32 nM and 630 nM, respectively.
The corresponding values for `CNS(=O)(=O)c1ccc(OCC(F)(F)F)c(Nc2ncnc3cc(OC(C)C)c(OC)cc23)c1` are 130 nM and 32000 nM.
The corresponding values for `CNS(=O)(=O)c1ccc(N(C)C)c(Nc2ncnc3ccccc23)c1` are 200 nM and 250 nM.
For `CNS(=O)(=O)c1ccc(N(C)C)c(Nc2ncnc3cc(OCCCN4CCOCC4)ccc23)c1`, the IC50 in data set [1] was below 10 nM; in data set [3], 25 nM; in data set [2] it was 2500 nM. In the data set with Rattus norvegicus, this molecule showed an AUC/dose of 0.02 kg·h/L.
Regarding `CNc1ccc2c(Nc3cc(S(=O)(=O)NC)ccc3N(C)C)ncnc2c1`, the values for the IC50 in data set [1] and in data set [2] were 40 nM and 10000 nM, respectively.
For the molecule `CNS(=O)(=O)c1ccc(N(C)C)c(Nc2ncnc3cc(OC)cc(OC)c23)c1`, the results for the concentration for half-maximal inhibition (IC50) in data set [1], in data set [3] and in data set [2] were below 10 nM, 10 nM and 79 nM, respectively. This molecule also had an AUC/dose in the data set with Rattus norvegicus of 0.04 kg·h/L.
Regarding `CNS(=O)(=O)c1ccc(N(C)C)c(Nc2ncnc3ccc(OC)cc23)c1`, the IC50 worked out at 79 nM in data set [1] and 1000 nM in data set [2].
In the case of `CNS(=O)(=O)c1ccc(OCC(F)(F)F)c(Nc2ncnc3cc(OC)c(OC)cc23)c1`, the figures for the IC50 in data set [1], in data set [3] and in data set [2] were 25 nM, 160 nM and 130 nM, respectively. Besides, the AUC/dose with Rattus norvegicus is 1.9 kg·h/L.
Turning to `CNS(=O)(=O)c1ccc(OCC(F)(F)F)c(Nc2ncnc3cc(OC)c(OC)c(OC)c23)c1`, the IC50 was below 10 nM in data set [1], 63 nM in data set [3] and 79 nM in data set [2]. In the data set on Rattus norvegicus, this molecule returned an AUC/dose of 0.24 kg·h/L.
Taken in the same sequence, the figures for `CCOc1cc2ncnc(Nc3cc(S(=O)(=O)NC)ccc3OCC(F)(F)F)c2cc1OC` were 13 nM, 50 nM, 100 nM and 1.7 kg·h/L.
Taken in the same sequence, the figures for `CNS(=O)(=O)c1ccc(N(C)C)c(Nc2ncnc3cc(OCCCOC)ccc23)c1` were below 10 nM, 25 nM, 800 nM and 0.03 kg·h/L.
Taken in the same sequence, the figures for `CNS(=O)(=O)c1ccc(OCC(F)(F)F)c(Nc2ncnc3cc(OCCCOC)ccc23)c1` were 25 nM, 320 nM, 160 nM and 0.07 kg·h/L.
As to `CNS(=O)(=O)c1ccc(OCC(F)(F)F)c(Nc2ncnc3cc(OC)cc(OC)c23)c1`, the IC50 was below 10 nM in data set [1], 13 nM in data set [3] and 50 nM in data set [2]. The molecule also showed an AUC/dose in the data set with Rattus norvegicus of 1.4 kg·h/L.
For `CNS(=O)(=O)c1ccc(N(C)C)c(Nc2ncnc3ccsc23)c1`, the IC50 came out at 200 nM in data set [1] and 1000 nM in data set [2].
